Experimental data reported in patent publication US11661426B2, “Imidazole-containing inhibitors of ALK2 kinase” (BioCryst Pharmaceuticals, Inc., priority 2017, dated 2023).
pIC50: −log10 of the molar value.

Target: ALK2 (Homo sapiens (Human), UniProt Q04771)
Assay: ALK2 inhibition, LanthaScreen Eu Kinase Binding Assay (ThermoFisher Scientific / Life Technologies)
Conditions: read-out: Measured Ki (IC50) Value for Compounds: IC50
Method: Biochemical assays to measure the inhibitory effects of the compounds were performed by ThermoFisher Scientific (Life Technologies). ALK2 inhibition was tested using LanthaScreen™ Eu Kinase Binding Assay screening protocol.

ALK2, sequence (Q04771 21-509): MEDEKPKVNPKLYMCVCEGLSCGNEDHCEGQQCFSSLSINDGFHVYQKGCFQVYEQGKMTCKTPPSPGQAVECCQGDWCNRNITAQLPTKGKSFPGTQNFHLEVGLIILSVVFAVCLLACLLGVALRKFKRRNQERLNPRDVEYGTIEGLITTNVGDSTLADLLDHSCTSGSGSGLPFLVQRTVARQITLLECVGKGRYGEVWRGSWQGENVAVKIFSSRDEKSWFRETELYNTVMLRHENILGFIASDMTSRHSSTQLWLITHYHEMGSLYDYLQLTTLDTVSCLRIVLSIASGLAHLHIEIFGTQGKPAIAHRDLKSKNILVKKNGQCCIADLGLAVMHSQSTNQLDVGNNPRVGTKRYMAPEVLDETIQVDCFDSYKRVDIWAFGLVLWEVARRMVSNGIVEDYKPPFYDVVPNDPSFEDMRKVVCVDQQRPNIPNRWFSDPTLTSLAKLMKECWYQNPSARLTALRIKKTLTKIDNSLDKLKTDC

pIC50 | SMILES
> 7.00 | OC[C@@H]1CCCN1c1nc(Nc2cn(-c3cccc4ncccc34)cn2)c2cccn2n1 [Compound 76c, (S)-(1-(4-((1-(quinolin-5-yl)-1H-imidazol-4-yl)amino)pyrrolo[2,1-f][1,2,4]triazin-2-yl)pyrrolidin-2-yl)methanol]
> 7.00 | OCc1cc2nc(N3CCC[C@H]3CO)nc(Nc3cn(-c4ccccc4)cn3)c2s1 [Compound 78f, (S)-(1-(6-(hydroxymethyl)-4-((1-phenyl-1H-imidazol-4-yl)amino)thieno[3,2-d]pyrimidin-2-yl)pyrrolidin-2-yl)methanol]
> 7.00 | CCCC=Cc1ccc2c(Nc3cn(-c4cc(OC)c(OC)c(OC)c4)cn3)nc(N3CCC[C@H]3CO)nn12 [Compound 79d, (S)-(1-(7-(pent-1-en-1-yl)-4-((1-(3,4,5-trimethoxyphenyl)-1H-imidazol-4-yl)amino)pyrrolo[2,1-f][1,2,4]triazin-2-yl)pyrrolidin-2-yl)methanol]
6.00 to 7.00 | CC(C)(C)OC(=O)N1CC=C(c2ccc3c(Nc4cn(-c5ccccc5)cn4)nc(N4CCC[C@H]4CO)nn23)CC1 [Compound 80a, (S)-tert-butyl 4-(2-(2-(hydroxymethyl)pyrrolidin-1-yl)-4-(1-phenyl-1H-imidazol-4-ylamino)pyrrolo[1,2-f][1,2,4]triazin-7-yl)-5,6-dihydropyridine-1(2H)-carboxylate]
< 6.00 | Cn1cnc(-n2cnc(Nc3nc(N4CCCC4c4ccccn4)nn4cccc34)c2)c1 (centres unmarked) [Compound 81c, N-(1′-methyl-1′H-[1,4′-biimidazol]-4-yl)-2-(2-(pyridin-2-yl)pyrrolidin-1-yl)pyrrolo[2,1-f][1,2,4]triazin-4-amine]
> 7.00 | Cn1cnc(-n2cnc(Nc3nc(N4CCC[C@H]4CO)nn4cccc34)c2)c1 [Compound 82a, (S)-(1-(4-((1′-methyl-1′H-[1,4′-biimidazol]-4-yl)amino)pyrrolo[2,1-f][1,2,4]triazin-2-yl)pyrrolidin-2-yl)methanol]
> 7.00 | OC[C@@H]1CCCN1c1cc(F)cc(-n2cnc(Nc3nc(N4CCC[C@H]4CO)nn4cccc34)c2)c1 [Compound 83c, ((S)-1-(4-((1-(3-fluoro-5-((S)-2-(hydroxymethyl)pyrrolidin-1-yl)phenyl)-1H-imidazol-4-yl)amino)pyrrolo[2,1-f][1,2,4]triazin-2-yl)pyrrolidin-2-yl)methanol]
> 7.00 | COc1cc(-n2cnc(Nc3nc(N4CCC[C@H]4CO)nc4sccc34)c2)cc(OC)c1OC [Compound 84b, (S)-(1-(4-((1-(3,4,5-trimethoxyphenyl)-1H-imidazol-4-yl)amino)thieno[2,3-d]pyrimidin-2-yl)pyrrolidin-2-yl)methanol]
> 7.00 | COc1cc(-n2cnc(Nc3nc(N4CCC[C@H]4CO)nn4c(Br)ccc34)c2)cc(OC)c1OC [Compound 85b, (S)-(1-(7-bromo-4-(1-(3,4,5-trimethoxyphenyl)-1H-imidazol-4-ylamino)pyrrolo[1,2-f][1,2,4]triazin-2-yl)pyrrolidin-2-yl)methanol]
> 7.00 | COc1cc(-n2cnc(Nc3nc(N4CCC[C@H]4CO)nc4ccccc34)c2)cc(OC)c1OC [Compound 86b, (S)-(1-(4-((1-(3,4,5-trimethoxyphenyl)-1H-imidazol-4-yl)amino)quinazolin-2-yl)pyrrolidin-2-yl)methanol]
6.00 to 7.00 | OC[C@@H]1CCCN1c1nc(Nc2cn(-c3ccccc3)cn2)c2scc(Br)c2n1 [Compound 87c, (S)-(1-(7-bromo-4-((1-phenyl-1H-imidazol-4-yl)amino)thieno[3,2-d]pyrimidin-2-yl)pyrrolidin-2-yl)methanol]
> 7.00 | COc1ccc(-c2nc(Nc3cn(-c4cc(OC)c(OC)c(OC)c4)cn3)c3cccn3n2)cc1 [Compound 88a, 2-(4-methoxyphenyl)-N-(1-(3,4,5-trimethoxyphenyl)-1H-imidazol-4-yl)pyrrolo[2,1-f][1,2,4]triazin-4-amine]
6.00 to 7.00 | COc1ccc(-c2csc3c(Nc4cn(-c5ccccc5)cn4)nc(N4CCC[C@H]4CO)nc23)cc1 [Compound 89a, (S)-(1-(7-(4-methoxyphenyl)-4-(1-phenyl-1H-imidazol-4-ylamino)thieno[3,2-d]pyrimidin-2-yl)pyrrolidin-2-yl)methanol]
> 7.00 | COc1ccc(-c2ccc3c(Nc4cn(-c5cc(OC)c(OC)c(OC)c5)cn4)nc(N4CCC[C@H]4CO)nn23)cc1 [Compound 90a, (S)-(1-(7-(4-methoxyphenyl)-4-(1-(3,4,5-trimethoxyphenyl)-1H-imidazol-4-ylamino)pyrrolo[1,2-f][1,2,4]triazin-2-yl)pyrrolidin-2-yl)methanol]
> 7.00 | COc1cc(-n2cnc(Nc3nc(N4CCC[C@H]4C(N)=O)nn4cccc34)c2)cc(OC)c1OC [Compound 91a, (S)-1-(4-(1-(3,4,5-trimethoxyphenyl)-1H-imidazol-4-ylamino)pyrrolo[1,2-f][1,2,4]triazin-2-yl)pyrrolidine-2-carboxamide]
6.00 to 7.00 | COc1cc(-n2cnc(Nc3nc(N4CCC[C@H]4CO)nc4sc(C(=O)OCC(C)C)cc34)c2)cc(OC)c1OC [Compound 92d, (S)-isobutyl 2-(2-(hydroxymethyl)pyrrolidin-1-yl)-4-((1-(3,4,5-trimethoxyphenyl)-1H-imidazol-4-yl)amino)thieno[2,3-d]pyrimidine-6-carboxylate]
> 7.00 | NC(=O)c1ccc(-n2cnc(Nc3nc(N4CCC[C@H]4CO)nn4cccc34)c2)cc1 [Compound 93c, (S)-4-(4-(2-(2-(hydroxymethyl)pyrrolidin-1-yl)pyrrolo[1,2-f][1,2,4]triazin-4-ylamino)-1H-imidazol-1-yl)benzamide]
> 7.00 | NC(=O)c1cccc(-n2cnc(Nc3nc(N4CCC[C@H]4CO)nn4cccc34)c2)c1 [Compound 94c, (S)-3-(4-(2-(2-(hydroxymethyl)pyrrolidin-1-yl)pyrrolo[1,2-f][1,2,4]triazin-4-ylamino)-1H-imidazol-1-yl)benzamide]
> 7.00 | CC(=O)c1ccc(-n2cnc(Nc3nc(N4CCC[C@H]4CO)nn4cccc34)c2)cc1 [Compound 95c, (S)-1-(4-(4-(2-(2-(hydroxymethyl)pyrrolidin-1-yl)pyrrolo[1,2-f][1,2,4]triazin-4-ylamino)-1H-imidazol-1-yl)phenyl)ethanone]

The remaining lines, values behind:

SMILES | pIC50
c1ccc([C@@H]2CCCN2c2nc(Nc3cn(C4CCC4)cn3)c3cccn3n2)cc1 [Compound 63a, (S)—N-(1-cyclobutyl-1H-imidazol-4-yl)-2-(2-phenylpyrrolidin-1-yl)pyrrolo[2,1-f][1,2,4]triazin-4-amine] | > 7.00
c1ccc([C@@H]2CCCN2c2nc(Nc3cn(C4CCC4)cn3)c3cccn3n2)nc1 [Compound 64a, (S)—N-(1-cyclobutyl-1H-imidazol-4-yl)-2-(2-(pyridin-2-yl)pyrrolidin-1-yl)pyrrolo[2,1-f][1,2,4]triazin-4-amine] | > 7.00
OC[C@@H]1CCCN1c1nc(Nc2cn(-c3ccc4cc[nH]c4c3)cn2)c2cccn2n1 [Compound 65c, (S)-(1-(4-((1-(1H-indol-6-yl)-1H-imidazol-4-yl)amino)pyrrolo[2,1-f][1,2,4]triazin-2-yl)pyrrolidin-2-yl)methanol] | 6.00 to 7.00
OC[C@@H]1CCCN1c1nc(Nc2cn(-c3ccccn3)cn2)c2cccn2n1 [Compound 66c, (S)-(1-(4-((1-(pyridin-2-yl)-1H-imidazol-4-yl)amino)pyrrolo[2,1-f][1,2,4]triazin-2-yl)pyrrolidin-2-yl)methanol] | > 7.00
OC[C@@H]1CCCN1c1nc(Nc2cn(-c3ccc4[nH]ccc4c3)cn2)c2cccn2n1 [Compound 67c, (S)-(1-(4-((1-(1H-indol-5-yl)-1H-imidazol-4-yl)amino)pyrrolo[2,1-f][1,2,4]triazin-2-yl)pyrrolidin-2-yl)methanol] | > 7.00
N#CC1CC(n2cnc(Nc3nc(N4CCC[C@H]4CO)nn4cccc34)c2)C1 (stereo partly drawn) [Compound 68a, (S)-3-(4-((2-(2-(hydroxymethyl)pyrrolidin-1-yl)pyrrolo[2,1-f][1,2,4]triazin-4-yl)amino)-1H-imidazol-1-yl)cyclobutanecarbonitrile] | > 7.00
c1ccc(C2CCCN2c2nc(Nc3cn(C4CCCC4)cn3)c3cccn3n2)nc1 (centres unmarked) [Compound 69a, N-(1-cyclopentyl-1H-imidazol-4-yl)-2-(2-(pyridin-2-yl)pyrrolidin-1-yl)pyrrolo[2,1-f][1,2,4]triazin-4-amine] | > 7.00
OCc1cc2c(Nc3cn(-c4ccccc4)cn3)nc(N3CCC[C@H]3CO)nc2s1 [Compound 70f, (S)-(1-(6-(hydroxymethyl)-4-((1-phenyl-1H-imidazol-4-yl)amino)thieno[2,3-d]pyrimidin-2-yl)pyrrolidin-2-yl)methanol] | > 7.00
OC[C@@H]1CCCN1c1nc(Nc2cn(-c3cc[nH]n3)cn2)c2cccn2n1 [Compound 71c, (S)-(1-(4-((1-(1H-pyrazol-3-yl)-1H-imidazol-4-yl)amino)pyrrolo[2,1-f][1,2,4]triazin-2-yl)pyrrolidin-2-yl)methanol] | > 7.00
COc1cc(OC)cc(-n2cnc(Nc3nc(N4CCC[C@H]4CO)nn4cccc34)c2)c1 [Compound 72c, (S)-(1-(4-((1-(3,5-dimethoxyphenyl)-1H-imidazol-4-yl)amino)pyrrolo[2,1-f][1,2,4]triazin-2-yl)pyrrolidin-2-yl)methanol] | > 7.00
COc1ccc(-n2cnc(Nc3nc(N4CCC[C@H]4CO)nn4cccc34)c2)cc1OC [Compound 73c, (S)-(1-(4-((1-(3,4-dimethoxyphenyl)-1H-imidazol-4-yl)amino)pyrrolo[2,1-f][1,2,4]triazin-2-yl)pyrrolidin-2-yl)methanol] | > 7.00
c1ccc(C2CCCN2c2nc(Nc3cn(-c4cc[nH]n4)cn3)c3cccn3n2)nc1 (centres unmarked) [Compound 74a, N-(1-(1H-pyrazol-3-yl)-1H-imidazol-4-yl)-2-(2-(pyridin-2-yl)pyrrolidin-1-yl)pyrrolo[2,1-f][1,2,4]triazin-4-amine] | < 6.00
COc1cc(-n2cnc(Nc3nc(N4CCC[C@H]4CO)nc4ccsc34)c2)cc(OC)c1OC [Compound 75b, (S)-(1-(4-((1-(3,4,5-trimethoxyphenyl)-1H-imidazol-4-yl)amino)thieno[3,2-d]pyrimidin-2-yl)pyrrolidin-2-yl)methanol] | > 7.00
